Experimental findings from US10328075B2, “Method of treatment and compounds for use therein” (Baker Heart and Diabetes Institute, priority 2015, dated 2019) are described below.

The target of assay [1] is T1, hFPR1 (Homo sapiens, UniProt P21462).
T1 construct: expressed in transfected cells
T1 sequence (P21462 1-350): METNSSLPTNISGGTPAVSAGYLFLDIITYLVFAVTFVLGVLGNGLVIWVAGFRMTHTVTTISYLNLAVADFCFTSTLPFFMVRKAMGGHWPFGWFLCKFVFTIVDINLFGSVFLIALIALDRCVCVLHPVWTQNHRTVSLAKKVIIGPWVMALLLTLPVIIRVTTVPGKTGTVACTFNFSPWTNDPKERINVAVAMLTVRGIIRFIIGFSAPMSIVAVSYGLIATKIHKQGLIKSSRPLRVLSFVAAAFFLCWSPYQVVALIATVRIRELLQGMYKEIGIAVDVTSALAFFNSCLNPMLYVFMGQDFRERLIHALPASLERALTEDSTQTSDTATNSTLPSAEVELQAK
As to the kind of experiment: ERK1/2 phosphorylation (AlphaScreen SureFire) in hFPR1-FlpIn-CHO cells. The assay is classed as cell-based. From the text:
(§1) cDNDA construct and generation of stable cell lines: cDNA in pcDNA3.1^+ encoding the human formyl peptide receptors (FPR) subtypes, hFPR1, hFPR2 and hFPR3 was obtained from Invitrogen. The sequences for 3 hFPR receptors were amplified by PCR and cloned into the Gateway entry vector, pDONR202™, using the BP clonase enzyme mix, according to the manufactures' instructions (Invitrogen Inc, Carlsbad, Calif., USA). All hFPR receptors constructs in pDONR201™ were subsequently transfected into the pEF5/FRT/V5/dest vector using the LR clonase enzyme mix (Invitrogen). Receptor constructs (pEF5/FRT/V5/dest) were used to transfect FIp-In CHO cells as described previously (Valant C et al., PNAS, 2014). Cells were selected using 500 μg/mL hydromycin to generate cell lines stably expressing each receptor construct. Cells were maintained and cultured in high glucose DMEM supplemented with 10% FBS, 16 mM HEPES and 500 μg/mL hydromycin at 37° C. under a humidified atmosphere containing 5% CO2.
(§2) In the various assays described below, cells were plated into 96-well transparent cell culture plates at 4×10^4 cells per well, cultured overnight in serum-free media at 37° C. in 5% CO2.
(§3) Measurement of extracellular signal regulated kinase 1 and 2 phosphorylation (pERK1/2): Initial ERK1/2 phosphorylation at Thr202/Tyr204 time-course experiments were performed to determine the time at which ERK1/2 phosphorylation was maximal after stimulation by each agonist. Cells were seeded onto transparent 96-well cell culture plates at 4×10^4 cells per well. After 6 h, cells were washed once with PBS, and then incubated in serum-free DMEM overnight, to allow FBS-stimulated phosphorylated ERK1/2 levels to subside. […] 10% (v/v) FBS was used as a positive control, with vehicle controls also included. The reaction was terminated by removal of study drugs and lysis of cells with 100 μL of SureFire lysis buffer (TGR Biosciences). Cell were lysed in SureFire lysis buffer and transferred to 384-well opaque proxiplates. Under low-light conditions, a 1:120 (v:v) dilution of AlphaScreen beads (both acceptor and donor):Surefire reaction buffer was prepared, which was mixed with the activation buffer in a ratio of 6:1 (v:v), respectively. Plates were incubated in the dark at 37° C. for 1 h before the fluorescence signal was measured by a Fusion-α plate reader (PerkinElmer Life and Analytical Sciences, Foster city, CA, USA) with standard AlphaScreen settings. Data were normalized to the maximal response elicited by 10% (v/v) FBS at the same time point.
(§4) Receptor mediated pERK1/2 levels were determined using the AlphaScreen™ ERK1/2 SureFire™ kit, as described previously (Keov, P et al., 2014). For all experiments, 10% FBS was used as internal positive control to stimulate pERK1/2, and which the maximum responses were used for normalization of data, whilst vehicle was used as negative control.
(§5) Data analysis: All data were analysed using GraphPad Prism 6.0 (GraphPad Software, San Deigo, Calif., USA). Where appropriate, concentration-response curves were fitted to derive the maximal agonist effect (Emax), and the ligand potency estimate (pEC50), where Emax is the maximal possible response of the system (not the agonist), basal is the basal level of response in the absence of agonist, and pEC50 is the negative logarithm of the agonist concentration that gives a response halfway between Emax and basal.
(§6) In the present study, FIp-IN CHO cells and Gateway plasmid were obtained from Invitrogen Inc (Carlsbad, Calif., USA). The sequences for all 3 known human FPRs (hFPR1, hFPR2 and hFPR3) were amplified by PCR and cloned into the Gateway entry vector, pDONR202TM, using the BP clonase enzyme mix, according to the manufacturers' instructions. The hFPR pDONR201TM constructs were subsequently transfected into the pEF5/FRT/V5/dest vector using the LR clonase enzyme mix (Invitrogen).

Assay [2] deals with T2, hFPR2 (Homo sapiens, UniProt P25090).
T2 construct: expressed in transfected cells
T2 sequence (P25090 1-351): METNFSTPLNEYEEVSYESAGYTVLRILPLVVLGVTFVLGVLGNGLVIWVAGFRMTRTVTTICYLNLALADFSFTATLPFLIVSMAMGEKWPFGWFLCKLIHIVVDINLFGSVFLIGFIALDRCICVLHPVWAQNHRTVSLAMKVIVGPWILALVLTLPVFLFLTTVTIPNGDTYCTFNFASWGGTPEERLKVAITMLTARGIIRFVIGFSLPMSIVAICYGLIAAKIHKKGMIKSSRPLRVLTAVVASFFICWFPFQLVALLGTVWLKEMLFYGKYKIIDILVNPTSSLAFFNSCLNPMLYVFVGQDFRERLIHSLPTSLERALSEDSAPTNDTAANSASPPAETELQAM
Briefly: ERK1/2 phosphorylation (AlphaScreen SureFire) in hFPR2-FlpIn-CHO cells. The assay is classed as cell-based. To be noted: for Time of maximal ERK1/2 phosphorylation in hFPR2-CHO cells: 10 μM, pilot timecourse; for EC50: read-out: pEC50, ERK1/2 phosphorylation, hFPR2-Flpln-CHO (converted); for ΔLog(τ/KA), ERK1/2 phosphorylation, hFPR2-Flpln-CHO: normalized transduction coefficient, reference agonist Cmpd43; for Log(τ/KA), ERK1/2 phosphorylation, hFPR2-Flpln-CHO: transduction coefficient.
Text: as §1, §2, §3, §4, §5, §6
A general note: In Alpha technology, singlet oxygen from a donor bead excites a nearby acceptor bead.

[3] abbreviates: Table 9, read-out: potency (pEC50) pERK1/2, hFPR1-FlpInCHO cells in vitro (converted).
[4] abbreviates: Table 2, percentage of ERK1/2 phosphorylation elicited by 10% FBS, read-out: Emax (%), ERK1/2 phosphorylation, hFPR2-Flpln-CHO.
The mark [5] stands for this setting: Table 8, percent of response elicited by 10% FBS, read-out: Emax, ERK1/2 phosphorylation, hFPR2-Flpln-CHO.

Structures are written as SMILES. Where two headings read alike, the source gives them in different places.

With `CC(C)C1C(NC(=O)Nc2ccc(Cl)cc2)C(=O)N(c2ccccc2)N1C` (centres unmarked) [BIDI-002], in assay [1] (10 μM, pilot timecourse), the “Time of maximal ERK1/2 phosphorylation in hFPR1-CHO cells” value amounted to 5 min. Further, the Emax in assay [1] (Table 2, percentage of ERK1/2 phosphorylation elicited by 10% FBS, read-out: Emax (%), ERK1/2 phosphorylation, hFPR1-Flpln-CHO) was found to be 61 ± 9%; in assay [1] (Table 8, percent of response elicited by 10% FBS, read-out: Emax, ERK1/2 phosphorylation, hFPR1-Flpln-CHO), 61 ± 9%; in assay [2] (setting [4]), 95 ± 4%; in assay [2] (setting [5]), 95 ± 4%. Besides, the EC50 in assay [1] (Table 2, read-out: pEC50, ERK1/2 phosphorylation, hFPR1-Flpln-CHO (converted)) is 67.6 nM; in assay [1] (Table 8, read-out: pEC50, ERK1/2 phosphorylation, hFPR1-Flpln-CHO (converted)) it was 63.1 nM; in assay [1] (setting [3]), 67.6 nM; in assay [2] (Table 2), 55 nM; in assay [2] (Table 8), 50.1 nM. The “ΔLog(τ/KA), ERK1/2 phosphorylation, hFPR1-Flpln-CHO” value in assay [1] (Table 8, normalized transduction coefficient, reference agonist Cmpd43) stood at 0.0. Also, the “Log(τ/KA), ERK1/2 phosphorylation, hFPR1-Flpln-CHO” value in assay [1] (Table 8, transduction coefficient) was found to be 7.3 ± 0.1. The “Time of maximal ERK1/2 phosphorylation in hFPR2-CHO cells” value in assay [2] worked out at 5 min. Moreover, the “ΔLog(τ/KA), ERK1/2 phosphorylation, hFPR2-Flpln-CHO” value in assay [2] (Table 8) was found to be 0.0. For the same molecule, the “Log(τ/KA), ERK1/2 phosphorylation, hFPR2-Flpln-CHO” value in assay [2] (Table 8) is on record as 7.7 ± 0.2.
Consider `Cc1cc(Cc2cccnc2)c(=O)n(CC(=O)Nc2ccc(Cl)cc2)n1` [MIPS-0010396], for which the EC50 in assay [1] (setting [3]) is 676 nM; in assay [1] (Table 10, receptor not given, values of 10394/10396 equal the hFPR1 values of Table 9, read-out: ERK pEC50 (converted)), 676 nM. In assay [1] (Table 10, receptor not given), the “ERK Rmax” value is given as 76 ± 2.
For the molecule `CSCC[C@H](NC=O)C(=O)N[C@@H](CC(C)C)C(=O)N[C@@H](Cc1ccccc1)C(=O)O` [fMLP, N-formyl-Met-Leu-Phe], the “Time of maximal ERK1/2 phosphorylation in hFPR2-CHO cells” value in assay [2] is 5 min. Also, the Emax in assay [2] (setting [4]) is 68 ± 11%. Also, in assay [2] (Table 8), the “ΔLog(τ/KA), ERK1/2 phosphorylation, hFPR2-Flpln-CHO” value was −2.3 ± 0.2 and the “Log(τ/KA), ERK1/2 phosphorylation, hFPR2-Flpln-CHO” value is 5.4 ± 0.1. Also, the Emax in assay [2] (setting [5]) amounted to 68 ± 11%.
